The target of the test is T1, myeloperoxidase (MPO) (Homo sapiens, UniProt P05164).
T1 construct: isolated human MPO
The test is described as follows: luminol luminescence assay of isolated human MPO with H2O2 and NaCl. The class given is biochemical.

T1 sequence (P05164 165-273): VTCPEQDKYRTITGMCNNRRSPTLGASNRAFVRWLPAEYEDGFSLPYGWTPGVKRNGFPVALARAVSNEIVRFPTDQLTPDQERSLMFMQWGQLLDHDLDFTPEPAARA
T1 sequence (P05164 279-745): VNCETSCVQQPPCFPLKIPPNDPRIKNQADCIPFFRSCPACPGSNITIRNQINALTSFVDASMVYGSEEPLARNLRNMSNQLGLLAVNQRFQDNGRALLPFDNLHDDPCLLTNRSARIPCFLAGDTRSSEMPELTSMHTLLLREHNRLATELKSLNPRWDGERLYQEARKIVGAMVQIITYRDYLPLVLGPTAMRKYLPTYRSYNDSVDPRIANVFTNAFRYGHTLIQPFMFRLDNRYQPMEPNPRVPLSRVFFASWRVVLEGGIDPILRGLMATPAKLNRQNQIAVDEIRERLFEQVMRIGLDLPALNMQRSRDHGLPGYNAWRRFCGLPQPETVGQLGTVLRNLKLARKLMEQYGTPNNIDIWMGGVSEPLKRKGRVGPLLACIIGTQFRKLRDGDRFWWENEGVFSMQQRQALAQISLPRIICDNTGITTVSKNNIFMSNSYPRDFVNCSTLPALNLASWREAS

`CC(C)OCCn1c(=S)[nH]c(=O)c2[nH]ccc21` [AZD3241] registered an IC50 of approximately 1200 nM.

What is called IC50 is the concentration that inhibits the measured activity by half. High values mean a need for much substance, low ones inhibition by little substance.
